Test results published in patent publication US10314308B2, “Microbiocidal benzoxaboroles” (SYNGENTA PARTICIPATIONS AG, priority 2015, dated 2019).

Key:
[1] = test system: Monographella Nivalis(Microdochium Nivale); assay: Monographella nivalis (Microdochium nivale) / liquid culture (foot rot cereals); format: cell-based; settings: PDB potato dextrose broth, 24° C., 4-5 days after application, read-out: disease control (inhibition of growth, photometrically)
Description: 14 Monographella Nivalis(Microdochium Nivale)/Liquid Culture (Foot Rot Cereals) Conidia of the fungus from cryogenic storage were directly mixed into nutrient broth (PDB potato dextrose broth). After placing a DMSO solution of test compound into a 96-well microtiter plate, the nutrient broth containing the fungal spores was added. The test plates were incubated at 24° C. and the inhibition of growth was determined photometrically 4-5 days after application.

[2] = test system: Mycosphaerella Graminicola(Septoria Tritici); assay: Mycosphaerella graminicola (Septoria tritici) / liquid culture (Septoria blotch); format: cell-based; settings: Zymoseptoria tritici, PDB potato dextrose broth, 24° C., 4-5 days after application, read-out: disease control (inhibition of growth, photometrically)
Description: 12 Mycosphaerella Graminicola(Septoria Tritici)/Liquid Culture (Septoria Blotch) Conidia of the fungus from cryogenic storage were directly mixed into nutrient broth (PDB potato dextrose broth). After placing a DMSO solution of test compound into a 96-well microtiter plate, the nutrient broth containing the fungal spores was added. The test plates were incubated at 24° C. and the inhibition of growth was determined photometrically 4-5 days after application.

[3] = test system: Pythium Ultimum; assay: Pythium ultimum / liquid culture (seedling damping off); format: cell-based; settings: Globisporangium ultimum, potato dextrose broth, 24° C., 2-3 days after application, read-out: disease control (inhibition of growth, photometrically)
[4] = test system: Gaeumannomyces Graminis; assay: Gaeumannomyces graminis / liquid culture (take-all of cereals); format: cell-based; settings: PDB potato dextrose broth, 24° C., 4-5 days after application, read-out: disease control (inhibition of growth, photometrically)
Description: 13 Gaeumannomyces Graminis/Liquid Culture (Take-all of Cereals) Mycelial fragments of the fungus from cryogenic storage were directly mixed into nutrient broth (PDB potato dextrose broth). After placing a DMSO solution of test compound into a 96-well microtiter plate, the nutrient broth containing the fungal spores is added. The test plates were incubated at 24° C. and the inhibition of growth was determined photometrically 4-5 days after application.

[5] = test system: Glomerella Lagenarium(Colletotrichum Ladenarium); assay: Glomerella lagenarium (Colletotrichum lagenarium) / liquid culture (anthracnose); format: cell-based; settings: PDB potato dextrose broth, 24° C., 3-4 days after application, read-out: disease control (inhibition of growth, photometrically)
Description: 10 Glomerella Lagenarium(Colletotrichum Ladenarium)/Liquid Culture (Anthracnose) Conidia of the fungus from cryogenic storage were directly mixed into nutrient broth (PDB potato dextrose broth). After placing a DMSO solution of test compound into a 96-well microtiter plate, the nutrient broth containing the fungal spores was added. The test plates were incubated at 24° C. and the inhibition of growth was measured photometrically 3-4 days after application.

[6] = test system: Mycosphaerella Arachidis(Cercospora Arachidicola); assay: Mycosphaerella arachidis (Cercospora arachidicola) / liquid culture (early leaf spot); format: cell-based; settings: PDB potato dextrose broth, 24° C., 4-5 days after application, read-out: disease control (inhibition of growth, photometrically)
Description: 11 Mycosphaerella Arachidis(Cercospora Arachidicola)/Liquid Culture (Early Leaf Spot) Conidia of the fungus from cryogenic storage were directly mixed into nutrient broth (PDB potato dextrose broth). After placing a DMSO solution of test compound into a 96-well microtiter plate, the nutrient broth containing the fungal spores was added. The test plates were incubated at 24° C. and the inhibition of growth was determined photometrically 4-5 days after application.

[7] = test system: Plasmopara Viticola; assay: whole plant or invertebrate; format: in vivo; settings: foliar, read-out: disease control
[8] = test system: Fusarium Culmorum; assay: microbe, parasite or virus in culture; format: cell-based; settings: read-out: disease control (inhibition of growth, photometrically)
[9] = test system: Sclerotinia Sclerotiorum; assay: Sclerotinia sclerotiorum / liquid culture (cottony rot); format: cell-based; settings: PDB potato dextrose broth, 24° C., 3-4 days after application, read-out: disease control (inhibition of growth, visually)
Description: 17 Sclerotinia Sclerotiorum/Liquid Culture (Cottony Rot) Mycelia fragments of a newly grown liquid culture of the fungus were directly mixed into nutrient broth (PDB potato dextrose broth). After placing a (DMSO) solution of the test compounds into a microtiter plate (96-well format) the nutrient broth containing the fungal material was added. The test plates were incubated at 24° C. and the inhibition of growth was determined visually 3-4 days after application.

CON=Cc1ccc(-c2cc3c(cc2Cl)COB3O)o1 (racemic) [Compound 23, 1-[5-(5-chloro-1-hydroxy-3H-2,1-benzoxaborol-6-yl)-2-furyl]-N-methoxy-methanimine]
≥ 80%: inhibition at 20 ppm [1] | inhibition at 20 ppm [2] | inhibition at 20 ppm [3] | inhibition at 20 ppm [4] | inhibition at 20 ppm [5] | inhibition at 20 ppm [6]

OB1OCc2cc(Cl)c(-c3ccncc3)cc21 [Compound 7]
≥ 80%: pest or weed control at 200 ppm [7] | inhibition at 20 ppm [3]

Cn1nccc1-c1cc2c(cc1Cl)COB2O [Compound 9]
≥ 80%: pest or weed control at 200 ppm [7] | inhibition at 20 ppm [3]

OB1OCc2cc(Cl)c(-c3cncnc3O)cc21 [Compound 19]
≥ 80%: inhibition at 20 ppm [3]

CSc1ncc(-c2cc3c(cc2Cl)COB3O)c(C)n1 [Compound 20]
≥ 80%: inhibition at 20 ppm [1] | inhibition at 20 ppm [3] | inhibition at 20 ppm [8]

Cc1nc(Nc2ccccc2)nc(C2CC2)c1-c1cc2c(cc1Cl)COB2O [Compound 24]
≥ 80%: inhibition at 20 ppm [1]

O=Cc1csc(-c2cc3c(cc2Cl)COB3O)c1 [Compound 34]
≥ 80%: inhibition at 20 ppm [1] | inhibition at 20 ppm [2] | inhibition at 20 ppm [3] | inhibition at 20 ppm [4] | inhibition at 20 ppm [5] | inhibition at 20 ppm [6] | inhibition at 20 ppm [8]

OB1OCc2cc(Cl)c(-c3cc4ccccc4o3)cc21 [Compound 37]
≥ 80%: inhibition at 20 ppm [1] | pest or weed control at 200 ppm [7] | inhibition at 20 ppm [4] | inhibition at 20 ppm [5]

N#Cc1ccc(-c2cc3c(cc2Cl)COB3O)o1 [Compound 41]
≥ 80%: inhibition at 20 ppm [1] | pest or weed control at 200 ppm [7] | inhibition at 20 ppm [2] | inhibition at 20 ppm [3] | inhibition at 20 ppm [4] | inhibition at 20 ppm [5]

N#Cc1csc(-c2cc3c(cc2Cl)COB3O)c1 [Compound 43]
≥ 80%: inhibition at 20 ppm [1] | pest or weed control at 200 ppm [7] | inhibition at 20 ppm [3] | inhibition at 20 ppm [4] | inhibition at 20 ppm [5]

OB1OCc2cc(Cl)c(-c3cc(Br)cs3)cc21 [Compound 46]
≥ 80%: inhibition at 20 ppm [1] | inhibition at 20 ppm [2] | inhibition at 20 ppm [3] | inhibition at 20 ppm [4] | inhibition at 20 ppm [5]

OB1OCc2cc(Cl)c(-c3cc4ccccc4s3)cc21 [Compound 47]
≥ 80%: inhibition at 20 ppm [1] | pest or weed control at 200 ppm [7] | inhibition at 20 ppm [2] | inhibition at 20 ppm [3] | inhibition at 20 ppm [4] | inhibition at 20 ppm [6]

Cn1nc(-c2cc3c(cc2F)COB3O)c2ccccc21 [Compound 48]
≥ 80%: inhibition at 20 ppm [1] | pest or weed control at 200 ppm [7] | inhibition at 20 ppm [3] | inhibition at 20 ppm [4]

Cc1cscc1-c1cc2c(cc1Cl)COB2O [Compound 53]
≥ 80%: inhibition at 20 ppm [1] | inhibition at 20 ppm [3] | inhibition at 20 ppm [4] | inhibition at 20 ppm [5] | inhibition at 20 ppm [6]

Cc1nn(C)c(C)c1-c1cc2c(cc1F)COB2O [Compound 55]
≥ 80%: pest or weed control at 200 ppm [7] | inhibition at 20 ppm [3]

COc1ncc(-c2cc3c(cc2F)COB3O)c(OC)n1 [Compound 58]
≥ 80%: inhibition at 20 ppm [1] | inhibition at 20 ppm [3]

OB1OCc2cc(F)c(-c3ccc(N4CCOCC4)nc3)cc21 [Compound 59]
≥ 80%: inhibition at 20 ppm [3]

CCn1cc(-c2cc3c(cc2F)COB3O)cn1 [Compound 60]
≥ 80%: inhibition at 20 ppm [1] | pest or weed control at 200 ppm [7] | inhibition at 20 ppm [3] | inhibition at 20 ppm [4] | inhibition at 20 ppm [5] | inhibition at 20 ppm [6]

OB1OCc2cc(F)c(-c3cc4ccccc4[nH]3)cc21 [Compound 61]
≥ 80%: inhibition at 20 ppm [1] | inhibition at 20 ppm [9] | pest or weed control at 200 ppm [7] | inhibition at 20 ppm [2] | inhibition at 20 ppm [3] | inhibition at 20 ppm [4] | inhibition at 20 ppm [6]

CCOc1ccc(-c2cc3c(cc2F)COB3O)cn1 [Compound 64]
≥ 80%: inhibition at 20 ppm [1] | pest or weed control at 200 ppm [7] | inhibition at 20 ppm [3]

COc1ncc(-c2cc3c(cc2Cl)COB3O)c(OC)n1 [Compound 69]
≥ 80%: inhibition at 20 ppm [3]

OB1OCc2cc(Cl)c(-c3ccc(N4CCOCC4)nc3)cc21 [Compound 70]
≥ 80%: inhibition at 20 ppm [1] | inhibition at 20 ppm [2] | inhibition at 20 ppm [3] | inhibition at 20 ppm [6]

CCn1cc(-c2cc3c(cc2Cl)COB3O)cn1 [Compound 71]
≥ 80%: inhibition at 20 ppm [1] | pest or weed control at 200 ppm [7] | inhibition at 20 ppm [3] | inhibition at 20 ppm [6]

COc1ccc(-c2cc3c(cc2F)COB3O)cn1 [Compound 76]
≥ 80%: inhibition at 20 ppm [1] | inhibition at 20 ppm [3]

Cn1cc(-c2cc3c(cc2F)COB3O)cn1 [Compound 77]
≥ 80%: inhibition at 20 ppm [3] | inhibition at 20 ppm [4] | inhibition at 20 ppm [6]

OB1OCc2cc(F)c(-c3cnccc3C(F)(F)F)cc21 [Compound 78]
≥ 80%: pest or weed control at 200 ppm [7] | inhibition at 20 ppm [3]

Cc1cc(-c2cc3c(cc2F)COB3O)c(C)s1 [Compound 80]
≥ 80%: inhibition at 20 ppm [1] | inhibition at 20 ppm [3] | inhibition at 20 ppm [5] | inhibition at 20 ppm [6]

OB1OCc2cc(F)c(-c3cncc(C(F)(F)F)c3)cc21 [Compound 82]
≥ 80%: inhibition at 20 ppm [1] | inhibition at 20 ppm [9] | inhibition at 20 ppm [2] | inhibition at 20 ppm [3] | inhibition at 20 ppm [4] | inhibition at 20 ppm [5] | inhibition at 20 ppm [6]

COc1ccc(-c2cc3c(cc2Cl)COB3O)cn1 [Compound 85]
≥ 80%: inhibition at 20 ppm [1] | inhibition at 20 ppm [3]

Cn1cc(-c2cc3c(cc2Cl)COB3O)cn1 [Compound 86]
≥ 80%: inhibition at 20 ppm [1] | inhibition at 20 ppm [3] | inhibition at 20 ppm [4] | inhibition at 20 ppm [6]

OB1OCc2cc(Cl)c(-c3cnccc3C(F)(F)F)cc21 [Compound 87]
≥ 80%: inhibition at 20 ppm [1] | pest or weed control at 200 ppm [7] | inhibition at 20 ppm [3]

OB1OCc2cc(Cl)c(-c3ccncc3Cl)cc21 [Compound 89]
≥ 80%: inhibition at 20 ppm [1] | pest or weed control at 200 ppm [7] | inhibition at 20 ppm [2] | inhibition at 20 ppm [3] | inhibition at 20 ppm [5] | inhibition at 20 ppm [6]
